Measurements published in paper PMC6491884, “Synthesis and Biological Evaluation of 4β-N-Acetylamino Substituted Podophyllotoxin Derivatives as Novel Anticancer Agents” (Frontiers in Chemistry, 2019).
Like-named read-outs stand apart in the source and are kept apart here.

Experiments:
[1] = system: EC9706 (human esophageal squamous cell carcinoma); assay: MTT growth inhibition assay, EC9706; type: cell-based
Procedure: (§1) Target compounds 12a–t were evaluated for in vitro cytotoxicity against four human tumor cell lines, including H460 (non-small cell lung carcinoma), HeLA (human cervical carcinoma), EC9706 (human esophageal squamous cell carcinoma), and T24 (human bladder carcinoma), using HaCaT (human immortalized epidermal cells) as a human non-malignant cell line. Etoposide (3) was included as a positive control. The screening procedure was based on the 3-(4, 5-dimethylthiazol-2-yl)-2, 5-diphenyltetrazoliun bromide (MTT) growth inhibition assay with triplicate experiments, and the results are summarized in Table 1.
(§2) The four human cancer cell lines and a normal human epidermal cell line of the screening panel, including H460 (human non-small cell lung carcinoma), HeLA (human cervical carcinoma), EC9706 (human esophageal squamous cell carcinoma), T24 (human bladder carcinoma), and HaCaT (human immortalized epidermal cells), were purchased from American Type Culture Collection (ATCC, Manassas, VA, U.S.A.). H460, EC9706, and T24 were maintained in RPMI 1640 medium containing 10% Fetal Bovine Serum, 100 units/ml penicillin, 100 μg/ml streptomycin under humidified incubator with 5% CO2 atmosphere at 37°C. HeLA and HaCaT were maintained in Dulbecco′s […] (DMEM) supplemented with 10% Fetal Bovine Serum 100 units/ml penicillin, 100 μg/ml streptomycin in a humidified incubator and 5% CO2 atmosphere at 37°C. Logarithmically growing cells were used for the following experiments.
(§3) The cytotoxicity of the synthesized compounds 12a–t against a panel of human cell lines was determined by the 3-(4,5-dimethylthiazol-2-yl)-2,5-diphenyltetrazoliun bromide (MTT) growth inhibition assay. The five human cell lines were, respectively, plated in 96-well-culture plates at the density of 1 × 10^5 cells per well and incubated for 24 h. Cells were exposed to different concentrations of synthetic podophyllotoxin derivatives for 48 h. MTT was added with a dose of 5 mg/mL in phosphate-buffered saline. After incubation for 4 h at 37°C, the purple formazan crystals were dissolved with […] dimethyl sulfoxide and the absorbance was measured at 570 nm in an ELISA reader. Antiproliferative activity was expressed using the IC50 value defined as the concentration of synthetic podophyllotoxin derivatives inhibiting cell proliferation by 50%. The cell viability ratio was calculated by the following formula: cell viability ratio (%) = OD treated /OD control × 100% (Ma et al., [2014]).

[2] = system: HeLA (human cervical carcinoma); assay: MTT growth inhibition assay, HeLA; type: cell-based; settings: 48 h
Procedure: as §1, §2, §3

[3] = system: T24 (human bladder carcinoma); assay: MTT growth inhibition assay, T24; type: cell-based; settings: T24, 48 h
Procedure: as §1, §2, §3

[4] = system: H460 (human non-small cell lung carcinoma); assay: MTT growth inhibition assay, H460; type: cell-based
Procedure: as §1, §2, §3

[5] = system: HaCaT (human immortalized epidermal cells); assay: MTT growth inhibition assay, HaCaT normal cells; type: cell-based; settings: 48 h
Procedure: as §1, §2, §3

[6] = system: four human cancer cell lines (EC-9706, HeLA, T-24 and H460) and a normal human epidermal cell line (HaCaT); assay: MTT growth inhibition assay, whole cell line panel; type: cell-based; settings: MTT, span over the cell line panel, read-out: IC50 values across the cell lines
Procedure: as §1, with “1. […]” for “1.”
The cytotoxicity of the synthesized compounds 12a–t against a panel of human cell lines was determined by the 3-(4,5-dimethylthiazol-2-yl)-2,5-diphenyltetrazoliun bromide (MTT) growth inhibition assay. […] After incubation for 4 h at 37°C, the purple formazan crystals were dissolved with […] dimethyl sulfoxide and the absorbance was measured at 570 nm in an ELISA reader. […] The cell viability ratio was calculated by the following formula: cell viability ratio (%) = OD treated /OD control × 100% (Ma et al., [2014]).

[7] = EC9706, 48 h, read-out: IC50 (μM) EC9706
[8] = Homo sapiens, read-out: IC50 (μM) HeLA, MTT, 48 h, n = 3
[9] = read-out: IC50 (μM) T24, MTT, 48 h, n = 3
[10] = NCI-H460, 48 h, read-out: IC50 (μM) H460
[11] = read-out: IC50 (μM) HaCaT, MTT, 48 h, n = 3, normal cell line

| Compound | IC50 [1, 7] [µM] | IC50 [2, 8] [µM] | IC50 [3, 9] [µM] | IC50 [4, 10] [µM] | IC50 [5, 11] [µM] | melting point [°C] | IC50 ([2]; read-out: IC50 (μM) HeLA, MTT, n = 3) [µM] | IC50 ([1]; EC9706, MTT, 48 h, n = 3, read-out: IC50 (μM) EC9706) [µM] | IC50 ([2]; Homo sapiens, MTT, n = 3, read-out: IC50 (μM) HeLA) [µM] | IC50 ([3]; MTT, 48 h, n = 3, read-out: IC50 (μM) T24) [µM] | IC50 ([4]; NCI-H460, MTT, 48 h, n = 3, read-out: IC50 (μM) H460) [µM] | IC50 ([5]; MTT, n = 3, normal cell line, read-out: IC50 (μM) HaCaT) [µM] | IC50 [6] [µM] |
| --- | --- | --- | --- | --- | --- | --- | --- | --- | --- | --- | --- | --- | --- |
| COc1cc([C@@H]2c3cc4c(cc3[C@@H](NC(=O)CN3CCCC3)[C@H]3COC(=O)[C@H]23)OCO4)cc(OC)c1O [Compound 12a] | > 50 | 12.7 ± 1.38 | > 50 | 9.61 ± 0.22 | 18.2 ± 1.28 | 113 to 116 |  |  |  |  |  |  |  |
| COc1cc([C@@H]2c3cc4c(cc3[C@@H](NC(=O)CN3CCCCC3)[C@H]3COC(=O)[C@H]23)OCO4)cc(OC)c1O [Compound 12b] | > 50 | 5.72 ± 0.74 | > 50 | 5.91 ± 0.65 | 5.17 ± 0.36 | 107 to 110 |  |  |  |  |  |  |  |
| COc1cc([C@@H]2c3cc4c(cc3[C@@H](NC(=O)CN3CCCCC3)[C@H]3COC(=O)[C@H]23)OCO4)cc(OC)c1OC [Compound 12c] | > 50 | > 50 | > 50 | > 50 | 1.89 ± 0.27 | 229 to 231 |  |  |  |  |  |  |  |
| COc1cc([C@@H]2c3cc4c(cc3[C@@H](NC(=O)CN3CCOCC3)[C@H]3COC(=O)[C@H]23)OCO4)cc(OC)c1O [Compound 12d, 4β-N-[2′′-(morpholino)-acetamide]-4′-demethylpodophyllotoxin] | > 50 | > 50 | > 50 | > 50 | > 50 | 109 to 111 |  |  |  |  |  |  |  |
| COc1cc([C@@H]2c3cc4c(cc3[C@@H](NC(=O)CN3CCOCC3)[C@H]3COC(=O)[C@H]23)OCO4)cc(OC)c1OC [Compound 12e, 4β-N-[(2′′-morpholino)-acetamide]-podophyllotoxin] | > 50 | > 50 | > 50 | > 50 | > 50 | 119 to 121 |  |  |  |  |  |  |  |
| CCCNCC(=O)N[C@@H]1c2cc3c(cc2[C@@H](c2cc(OC)c(O)c(OC)c2)[C@H]2C(=O)OC[C@@H]21)OCO3 [Compound 12f] | 11.7 ± 0.26 | 23.9 ± 1.04 | 18.6 ± 1.57 | 2.54 ± 0.34 | 2.59 ± 0.13 | 199 to 202 |  |  |  |  |  |  |  |
| CCCCNCC(=O)N[C@@H]1c2cc3c(cc2[C@@H](c2cc(OC)c(OC)c(OC)c2)[C@H]2C(=O)OC[C@@H]21)OCO3 [Compound 12i] | > 50 | > 50 | > 50 | 37.8 ± 1.01 | > 50 | 92 to 95 |  |  |  |  |  |  |  |
| CCN(CC)CC(=O)N[C@@H]1c2cc3c(cc2[C@@H](c2cc(OC)c(O)c(OC)c2)[C@H]2C(=O)OC[C@@H]21)OCO3 [Compound 12k] | > 50 | 45.8 ± 0.71 | > 50 | > 50 | > 50 | 106 to 108 |  |  |  |  |  |  |  |
| COc1cc([C@@H]2c3cc4c(cc3[C@@H](NC(=O)CN(CCO)CCO)[C@H]3COC(=O)[C@H]23)OCO4)cc(OC)c1O [Compound 12l] | > 50 | > 50 | > 50 | > 50 | 4.21 ± 0.17 | 212 to 214 |  |  |  |  |  |  |  |
| COc1cc([C@@H]2c3cc4c(cc3[C@@H](NC(=O)CN(CCO)CCO)[C@H]3COC(=O)[C@H]23)OCO4)cc(OC)c1OC [Compound 12m] | > 50 | 36.4 ± 0.49 | > 50 | > 50 | > 50 | 105 to 107 |  |  |  |  |  |  |  |
| COc1cc([C@@H]2c3cc4c(cc3[C@@H](NC(=O)CNCc3ccccc3)[C@H]3COC(=O)[C@H]23)OCO4)cc(OC)c1O [Compound 12n] | 40.1 ± 2.43 | 6.26 | > 50 | 16.5 ± 0.39 | 13.3 ± 0.8 | 141 to 143 | 6.25 ± 0.21 |  |  |  |  |  |  |
| COc1cc([C@@H]2c3cc4c(cc3[C@@H](NC(=O)CNCc3ccccc3)[C@H]3COC(=O)[C@H]23)OCO4)cc(OC)c1OC [Compound 12o] | 11.3 ± 0.22 | 8.55 ± 0.28 | > 50 | 26.9 ± 0.92 | 2.14 ± 0.33 | 111 to 113 |  |  |  |  |  |  |  |
| COc1cc([C@@H]2c3cc4c(cc3[C@@H](NC(=O)CNc3ccc(F)cc3)[C@H]3COC(=O)[C@H]23)OCO4)cc(OC)c1O [Compound 12p] | > 50 | > 50 | > 50 | 9.75 ± 0.26 | > 50 | 159 to 162 |  |  |  |  |  |  |  |
| COc1ccc(CCNCC(=O)N[C@@H]2c3cc4c(cc3[C@@H](c3cc(OC)c(O)c(OC)c3)[C@H]3C(=O)OC[C@@H]32)OCO4)cc1OC [Compound 12q] | 20.7 ± 0.72 | 4.57 ± 0.3 | > 50 | 3.43 ± 0.17 | 3.69 ± 0.19 | 229 to 231 |  |  |  |  |  |  |  |
| COc1ccc(CCNCC(=O)N[C@@H]2c3cc4c(cc3[C@@H](c3cc(OC)c(OC)c(OC)c3)[C@H]3C(=O)OC[C@@H]32)OCO4)cc1OC [Compound 12r] | > 50 | > 50 | > 50 | > 50 | > 50 | 106 to 108 |  |  |  |  |  |  |  |
| COc1cc([C@@H]2c3cc4c(cc3[C@@H](NC(=O)CNCCc3ccc(O)cc3)[C@H]3COC(=O)[C@H]23)OCO4)cc(OC)c1O [Compound 12s] | 14.3 ± 0.69 | 2.27 ± 0.26 | 12.7 ± 0.73 | 5.94 ± 0.18 | 8.67 ± 0.72 | 234 to 236 |  |  |  |  |  |  |  |
| COc1cc([C@@H]2c3cc4c(cc3[C@@H](NC(=O)CNCCc3ccc(O)cc3)[C@H]3COC(=O)[C@H]23)OCO4)cc(OC)c1OC [Compound 12t] | > 50 | > 50 | > 50 | 42.1 ± 1.21 | > 50 | 116 to 119 |  |  |  |  |  |  |  |
| COc1cc([C@@H]2c3cc4c(cc3[C@@H](O[C@@H]3O[C@@H]5CO[C@@H](C)O[C@H]5[C@H](O)[C@H]3O)[C@H]3COC(=O)[C@H]23)OCO4)cc(OC)c1O [Etoposide, etoposide, reference compound] |  |  |  |  |  |  |  | > 50 | 3.12 ± 0.35 | 8.43 ± 0.33 | 43.2 ± 1.45 | 48.7 ± 1.69 | 8.4 to 78.2 |
